# Where “and” joins values, the source holds several entries; their conditions need not be identical. Equal values may be shown once.
# Key:
# NDM-HK (NDM-1^+) = assay: microbe, parasite or virus in culture; type: cell-based, E. coli; settings: for MBC of Bi(III) compound/inhibitor alone / MBC of MER in combination with compound at 32 µg mL^-1 / MIC of Bi(III) compound/inhibitor alone / MIC of MER in combination with compound at 32 µg mL^-1 / FICI: NDM-HK; for FICI: MER + compound, 256 µg mL^-1 set as MIC of Bi(III), 128 for Bi(NAC)3
# Method: (§1) MIC values were determined by standard broth micro-dilution method (Clinical and Laboratory Standards Institute (CLSI) M100-S20, 2010)[64]. Briefly, bacterial cells were cultured in LB broth overnight at 37 °C at 250 rpm and the OD was measured at 600 nm (OD600). The bacterial density was adjusted to about 1 × 10^6 CFU mL^−1 and checked by CFU counting on agar plates afterwards. Tested antibiotics or Bi(III) compounds were added triplicately into individual wells of flat-bottomed 96-well plates and performed 2-fold serial dilution, followed by addition of prepared bacterial inocula. The plate was then incubated at 37 °C for overnight. […] The MIC was determined as the lowest concentration of a drug that could inhibit the growth of microorganism by both visual reading and OD reading at 600 nm using a microtiter plate reader.
# (§2) Resulting growth (or lack of growth) was examined after overnight culturing and the lowest concentration that inhibits 99.9% of the original culture was taken as MBC.
# (§3) Other procedures were kept strictly the same. […] Synergism was defined when FICI ≤ 0.5, indifference was defined when FICI > 0.5 and < 4, and antagonism was defined when FICI≥4[65]. […] All of the determinations were performed at least in triplicate on different days.
# IMP-BL21 (IMP-4^+) = assay: microbe, parasite or virus in culture; type: cell-based, E. coli; settings: IMP-BL21
# Method: as §1, §2, §3
# VIM-BL21 (VIM-2^+) = assay: microbe, parasite or virus in culture; type: cell-based, E. coli; settings: VIM-BL21; for FICI: MER + compound, 256 µg mL^-1 set as MIC of Bi(III)
# Method: as §1, §2, §3
# [1] = system: NDM-K. pneumonia (NDM-1^+); assay: Microdilution MIC/MBC and checkerboard assay; type: cell-based, Klebsiella pneumonia; settings: for MBC of MER in combination with compound at 32 µg mL^-1 / MIC of MER in combination with compound at 32 µg mL^-1: NDM-K. pneumonia (NDM-KP)
# Method: as §1, §2, §3
# [2] = system: NDM-C. freundii (NDM-1^+); assay: Microdilution MIC/MBC and checkerboard assay; type: cell-based, Citrobacter freundii; settings: for MBC of MER in combination with compound at 32 µg mL^-1 / MIC of MER in combination with compound at 32 µg mL^-1: NDM-C. freundii (NDM-CF)
# Method: as §1, §2, §3
# NDM-1 [3] = molecular target: T1, NDM-1 (Klebsiella pneumoniae, UniProt C7C422); type: biochemical; settings: NDM-1 50 nM, 1 h preincubation, MER substrate
# Method: (§4) Freshly prepared 50 nM of Zn2-NDM-1, Zn2-VIM-2, or Zn2-IMP-4 in 50 mM HEPES/Na pH 7.0, 100 mM NaCl were first incubated with various concentrations of CBS for 1 h at 25 °C, then mixed with equal volume of 0.2 mM MER. The assay was performed in a 1 cm quartz cuvette using the kinetic mode on a Varian Cary50 UV-visible spectrophotometer at 25 °C. The decrease in absorbance at 300 nm due to ring-opening of MER was monitored every second for a duration of 10 min until the reaction was completed. The initial rates were extracted and calculated from each reaction curves for fitting IC50 curves.
# Target sequence in this assay (C7C422 29-270, looked up, species assumed): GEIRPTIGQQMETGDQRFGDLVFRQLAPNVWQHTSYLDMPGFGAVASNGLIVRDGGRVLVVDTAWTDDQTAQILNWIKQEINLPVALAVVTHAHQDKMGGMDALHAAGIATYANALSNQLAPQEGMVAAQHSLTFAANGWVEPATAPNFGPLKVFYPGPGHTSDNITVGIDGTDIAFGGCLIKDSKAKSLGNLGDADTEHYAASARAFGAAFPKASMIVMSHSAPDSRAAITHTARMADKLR
# VIM-2 = VIM-2 (Escherichia coli, UniProt Q5U7L7); type: biochemical; settings: VIM-2 50 nM, 1 h preincubation, MER substrate
# Method: as §4
# IMP-4 = assay: IC50 enzyme inhibition assay; type: biochemical; settings: IMP-4 50 nM, 1 h preincubation, MER substrate
# Method: as §4
# NDM-1 [4] = molecular target: T1, NDM-1; type: biochemical; settings: MER substrate 10 to 150 µM
# Target sequence in this assay (C7C422 29-270, looked up, species assumed): as above
# Method: NDM-1 (50 nM) was incubated with Bi(NIT)3 (0.5, 1.0, and 1.5 µM) for 1 h at 25 °C with gentle shaking. The assay was performed in a 96-well microplate reader at 298 K. The final assay buffer contains 50 mM HEPES at pH 7.0, 100 mM NaCl, with MER as the substrate ranging from 10 to 150 µM. Control experiment was also performed in the absence of inhibitors under the same conditions. The Km and Vmax for both the uninhibited and inhibited reactions were obtained by fitting the data into the double reciprocal Lineweaver–Burk plots.
# NDM-HK = settings: for growth inhibition based on optical density (OD) reading: metal compound 10, 50, 200 µM with MER at ½MIC (8 μg mL^−1), 24 h
# Method: Metal salts used for the screening involved bismuth nitrate (Bi(III)), gallium nitrate (Ga(III)), sodium stibogluconate (Sb(V)), chromium chloride (Cr(III)), cobalt chloride (Co(II)), nickel chloride (Ni(II)), ruthenium chloride (Ru(II)), and copper sulfate (Cu(II)). Briefly, different concentrations (10, 50, and 200 μM) of metal compounds were added to LB medium containing 8 μg mL^−1 of MER in 96-well plates. About 2 × 10^6 CFU mL^−1 logarithmic cultures of NDM-HK were added to each well of the plates and co-incubated for overnight. The growth inhibition of bacteria was monitored by OD reading at 600 nm and serial dilution in LB agar plate. Wells with no antibiotics or metal compounds served as growth controls, and wells with no bacteria added served as background controls. Each test was performed in triplicate. The inhibition was calculated as [1−(ODsample−ODbackground)/(ODcontrol−ODbackground)] ×100%. CFU was counting by 10-fold serial dilution in PBS and 10 μL was spotted in LB agar plate.
# NDM-1 [5] = molecular target: T1, NDM-1; type: cell-based; parameters: endogenous in cells; host or cells: E. coli clinical isolate NDM-HK; settings: NDM-HK cultured with 100 µM compound; control 50.1 °C
# Method: The cellular thermal shift assay was performed according to a standard method. Clinical isolate of NDM-1-positive E. coli (NDM-HK) was cultured overnight in the absence or presence of 100 µM Bi(III) compounds, i.e., CBS, Bi(NAC)3, Bi(NIT)3. The bacterial pellets were harvested and washed with PBS for 4 times. The cell suspensions were aliquoted into PCR tubes and heat treatment was performed at the designated temperature ranging from 40 °C to 70 °C for 3 min in a 96-well thermal cycler. The tubes were cooled immediately at room temperature for another 3 min after heating and the heating procedures were repeated for three cycles. For the cell lysis, the samples were frozen–thawed for two cycles in liquid nitrogen and thermal cycler set at 25 °C. The samples were vortexed gently after each cycle and were centrifuged at 20,000 × g to obtain the supernatant when the second cycle was finished. All the samples were subjected to western blot analysis for detection and quantification of NDM-1 content as described above.
# Target sequence in this assay (C7C422 29-270 limits assumed): as the sequence (C7C422 29-270, looked up, species assumed) above
SMILES,MBC of Bi(III) compound/inhibitor alone (NDM-HK (NDM-1^+)) [µg/mL],MBC of MER in combination with compound at 32 µg mL^-1 (NDM-HK (NDM-1^+)) [µg/mL],MIC of Bi(III) compound/inhibitor alone (NDM-HK (NDM-1^+)),MIC of MER in combination with compound at 32 µg mL^-1 (NDM-HK (NDM-1^+)) [µg/mL],FICI (NDM-HK (NDM-1^+)),MBC of MER in combination with compound at 32 µg mL^-1 (VIM-BL21 (VIM-2^+)) [µg/mL],MIC of MER in combination with compound at 32 µg mL^-1 (VIM-BL21 (VIM-2^+)) [µg/mL],FICI (VIM-BL21 (VIM-2^+)),further results
"CC(=O)N[C@@H](CS)C(=O)O [NAC, N-acetyl-cysteine]",> 256,8,> 256 µg/mL,8,0.750,,,,
"O=C(O)CN(CCN(CC(=O)O)CC(=O)O)CC(=O)O [EDTA, ethylenediaminetetraacetate]",> 256,0.5,> 256 µg/mL,0.5,0.031,,,,
"C[C@H](CS)C(=O)N1CCC[C@@H]1C(=O)O [CPL, D-captopril]",,16,,16,2.000,,,,"MBC (NDM-HK (NDM-1^+); Escherichia coli, read-out: MBC of Bi(III) compound/inhibitor alone): > 256 µg/mL; MIC (NDM-HK (NDM-1^+); Escherichia coli, read-out: MIC of Bi(III) compound/inhibitor alone): > 256 µg/mL"
"O=[N+]([O-])[O-].O=[N+]([O-])[O-].O=[N+]([O-])[O-].[Bi+3] [Bi(NIT)3, bismuth nitrate]",> 256,4,> 256 µg/mL,2,0.266,2,1,0.063,"MBC of MER in combination with compound at 32 µg mL^-1 (IMP-BL21 (IMP-4^+)): 8 µg/mL; MIC of MER in combination with compound at 32 µg mL^-1 (IMP-BL21 (IMP-4^+)): 4 µg/mL; FICI (IMP-BL21 (IMP-4^+); MER + compound, 256 µg mL^-1 set as MIC of Bi(III)): 0.250; MBC of MER in combination with compound at 32 µg mL^-1 [1]: 1 µg mL^-1 and 1/1 µg mL^-1; MIC of MER in combination with compound at 32 µg mL^-1 [1]: 1 µg mL^-1 and 1/1 µg mL^-1; MBC of Bi(III) compound alone ([1]; NDM-KP): > 256 µg/mL; MIC of Bi(III) compound alone ([1]; NDM-KP): > 256 µg/mL; FICI ([1]; NDM-KP, MER + compound, 256 µg mL^-1 set as MIC of Bi(III)): 0.125; MBC of MER in combination with compound at 32 µg mL^-1 [2]: 4 µg/mL; MIC of MER in combination with compound at 32 µg mL^-1 [2]: 2 µg/mL; MBC of Bi(III) compound alone ([2]; NDM-CF): > 256 µg/mL; MIC of Bi(III) compound alone ([2]; NDM-CF): > 256 µg/mL; FICI ([2]; NDM-CF, MER + compound, 256 µg mL^-1 set as MIC of Bi(III)): 0.375; IC50 (NDM-1 [3]): 700 ± 130 nM; IC50 (VIM-2): 1200 ± 130 nM; IC50 (IMP-4): 990 ± 190 nM; inhibition mode (Lineweaver Burk plot) (NDM-1 [4]): either a non-competitive or an irreversible inhibition mode; colony-forming unit (CFU) counting on agar plate after serial dilutions (NDM-HK; MER 8 μg mL-1 + metal compound 10 μM): no colony was observed; growth inhibition based on optical density (OD) reading (NDM-HK): > 90%; NDM-1 melting temperature, treated group (NDM-1 [5]): 48.1 °C"
O=[N+]([O-])[O-].O=[N+]([O-])[O-].O=[N+]([O-])[O-].[Ga+3] [gallium nitrate],,,greater than 256 µg mL^-1,,,,,,growth inhibition based on optical density (OD) reading (NDM-HK): > 90%
O=C([O-])CN(CCN(CC(=O)[O-])CC(=O)O)CC(=O)[O-].[Bi+3] [Bi(EDTA)],> 256,0.5,> 256 µg/mL,0.5,0.094,,,,
C[C@H](C[S][Bi+][S]C[C@@H](C)C(=O)N1CCC[C@H]1C(=O)[O-])C(=O)N1CCC[C@H]1C(=O)[O-] [Bi(CPL)2],> 256,0.5,> 256 µg/mL,0.5,0.125,1,0.5,0.078,MBC of Bi(III) compound alone (VIM-BL21 (VIM-2^+)): > 256 µg/mL; MIC of Bi(III) compound alone (VIM-BL21 (VIM-2^+)): > 256 µg/mL
"CNC(=C[N+](=O)[O-])NCCSCc1ccc(CN(C)C)o1.O=C([O-])CC(O)(CC(=O)[O-])C(=O)[O-].[Bi+3] [RBC, ranitidine bismuth citrate]",> 256,4,> 256 µg/mL,2,0.250,,,,
CC(C)([S][Bi+][S]C(C)(C)C(N)C(=O)O)C(N)C(=O)O (centres unmarked) [Bi(PCM)2],> 256,2,> 256 µg/mL,2,0.313,2,1,0.093,MBC of MER in combination with compound at 32 µg mL^-1 (IMP-BL21 (IMP-4^+)): 2 µg/mL; MIC of MER in combination with compound at 32 µg mL^-1 (IMP-BL21 (IMP-4^+)): 1 µg/mL; MBC of Bi(III) compound alone (VIM-BL21 (VIM-2^+)): > 256 µg/mL; MIC of Bi(III) compound alone (VIM-BL21 (VIM-2^+)): > 256 µg/mL; MBC of MER in combination with compound at 32 µg mL^-1 [1]: 8 µg/mL; MIC of MER in combination with compound at 32 µg mL^-1 [1]: 2 µg/mL; MBC of MER in combination with compound at 32 µg mL^-1 [2]: 2/2 µg mL^-1; MIC of MER in combination with compound at 32 µg mL^-1 [2]: 2/2 µg mL^-1; IC50 (NDM-1 [3]): 2800 ± 110 nM; IC50 (VIM-2): 3710 ± 1190 nM; IC50 (IMP-4): 1000 ± 370 nM
NC(CCC(=O)NC(C[S][Bi]([S]CC(NC(=O)CCC(N)C(=O)O)C(=O)NCC(=O)O)[S]CC(NC(=O)CCC(N)C(=O)O)C(=O)NCC(=O)O)C(=O)NCC(=O)O)C(=O)O (centres unmarked) [Bi(GSH)3],> 256,4,> 256 µg/mL,2,0.250,,,,

# From PMC5789847, “Bismuth antimicrobial drugs serve as broad-spectrum metallo-β-lactamase inhibitors” (Nature Communications, 2018)
